This experiment relates to HEV. In words: HEV RNA test in a human subject with HEV infection (case, Example 1). In kind it is in vivo. The protocol:
A human subject was identified as having AIDS, Kaposi's sarcoma, non-Hodgkin's lymphoma, compensated cirrhosis, and a history of alcoholism. An HEV RNA test of the subject was conducted, and the result was positive, at approximately 20,000 IU/mL. The subject was started on ribavirin monotherapy, wherein ribavirin was administered to the subject at 800 mg once per day. […] The subject was then started on a treatment wherein ribavirin administration was continued at 800 mg per day and sofosbuvir was also administered at 400 mg per day. After four weeks of such treatment, the subject's HEV RNA levels were below the lower limit of detection of about 25 IU/mL.

For `NC(=O)c1ncn([C@@H]2O[C@H](CO)[C@@H](O)[C@H]2O)n1` [ribavirin], the HEV status entry (ribavirin monotherapy 800 mg once per day for over one year, human subject, baseline HEV RNA approximately 20,000 IU/mL) is reported as “remained HEV-positive”. Turning to `CC(C)OC(=O)[C@H](C)N[P@](=O)(OC[C@H]1O[C@@H](n2ccc(=O)[nH]c2=O)[C@](C)(F)[C@@H]1O)Oc1ccccc1` [sofosbuvir, (S)-isopropyl 2-(((S)-(((2R,3R,4R,5R)-5-(2,4-dioxo-3,4-dihydropyrimidin-1(2H)-yl)-4-fluoro-3-hydroxy-4-methyltetrahydrofuran-2-yl)methoxy)(phenoxy)phosphoryl)amino)propanoate], under “sofosbuvir 400 mg per day together with continued ribavirin 800 mg per day, after four weeks, same subject, lower limit of detection about 25 IU/mL”, the “HEV RNA levels” value is below 25 IU/mL.

The values are drawn from patent US20170348343A1, “METHODS OF TREATING HEPATITIS E VIRAL INFECTION” (Gilead Pharmasset LLC, priority 2016, published 2017).
